{"source": "PubChem BioAssay (NCI)", "test_in_all_cases": "growth of human tumour cells (NCI), 48 h", "key": {"BT-549 breast": {"test_system": "BT-549 breast"}, "HCC-2998 colon": {"test_system": "HCC-2998 colon"}, "HOP-92 NSCLC": {"test_system": "HOP-92 NSCLC"}, "MDA-MB-231 breast": {"test_system": "MDA-MB-231 breast"}, "NCI-H460 lung": {"test_system": "NCI-H460 lung"}, "SF-268 CNS": {"test_system": "SF-268 CNS"}, "SK-MEL-28 melanoma": {"test_system": "SK-MEL-28 melanoma"}, "SN12C renal": {"test_system": "SN12C renal"}, "U251 CNS": {"test_system": "U251 CNS"}, "UACC-62 melanoma": {"test_system": "UACC-62 melanoma"}}, "note": "Values joined by “and” are separate entries in the source; they are usually repeats but may differ in a detail not shown here. Identical values can stand only once.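 Grown in 96-well plates, cells were treated for 48 hours with each compound at five concentrations. Insufficient inhibition: endpoint recorded as highest concentration tested. The concentration for 50% growth inhibition is given as GI50. TGI is the concentration that stops growth completely.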"}
{"smiles": "Cc1cnc(Nc2ccc(OCCN3CCCC3)cc2)nc1Nc1cccc(S(=O)(=O)NC(C)(C)C)c1", "values": [{"measurement": "GI50", "setting": "BT-549 breast", "value": "1.74 µM and 2.68 µM"}, {"measurement": "TGI", "setting": "BT-549 breast", "value": "4.38 µM and > 9.47 µM"}, {"measurement": "GI50", "setting": "HCC-2998 colon", "value": "0.409 µM and 1.43 µM"}, {"measurement": "TGI", "setting": "HCC-2998 colon", "value": "4.43 µM and > 7.01 µM"}, {"measurement": "GI50", "setting": "HOP-92 NSCLC", "value": "0.196 µM and 0.384 µM"}, {"measurement": "TGI", "setting": "HOP-92 NSCLC", "value": "2.75 µM and 1.88 µM"}, {"measurement": "GI50", "setting": "MDA-MB-231 breast", "value": "0.214 µM and 1.33 µM"}, {"measurement": "TGI", "setting": "MDA-MB-231 breast", "value": "11.7 µM and > 10 µM"}, {"measurement": "GI50", "setting": "NCI-H460 lung", "value": "0.228 µM and 1.09 µM"}, {"measurement": "TGI", "setting": "NCI-H460 lung", "value": "7.28 µM and > 10 µM"}, {"measurement": "GI50", "setting": "SF-268 CNS", "value": "1.69 µM and 1.67 µM"}, {"measurement": "TGI", "setting": "SF-268 CNS", "value": "7.52 µM and > 8.99 µM"}, {"measurement": "GI50", "setting": "SK-MEL-28 melanoma", "value": "3.27 µM and > 7.8 µM"}, {"measurement": "TGI", "setting": "SK-MEL-28 melanoma", "value": "17.5 µM and > 10 µM"}, {"measurement": "GI50", "setting": "SN12C renal", "value": "0.128 µM and 0.98 µM"}, {"measurement": "TGI", "setting": "SN12C renal", "value": "9.51 µM and > 9.64 µM"}, {"measurement": "GI50", "setting": "U251 CNS", "value": "0.808 µM and 1.35 µM"}, {"measurement": "TGI", "setting": "U251 CNS", "value": "17.2 µM and > 10 µM"}, {"measurement": "GI50", "setting": "UACC-62 melanoma", "value": "0.491 µM and 1.92 µM"}, {"measurement": "TGI", "setting": "UACC-62 melanoma", "value": "8.14 µM and > 10 µM"}]}
{"smiles": "COc1cc(/C=C2\\CC3C4CC=C5C[C@@H](O)CC[C@]5(C)C4CC[C@]3(C)C2=O)ccc1OCCCn1ccnc1", "note": "(stereo not given in full)", "values": [{"measurement": "GI50", "setting": "BT-549 breast", "value": 16.5, "unit": "µM"}, {"measurement": "TGI", "setting": "BT-549 breast", "value": 44.3, "unit": "µM"}, {"measurement": "GI50", "setting": "HCC-2998 colon", "value": 14.8, "unit": "µM"}, {"measurement": "TGI", "setting": "HCC-2998 colon", "value": 28.3, "unit": "µM"}, {"measurement": "GI50", "setting": "HOP-92 NSCLC", "value": 14.2, "unit": "µM"}, {"measurement": "TGI", "setting": "HOP-92 NSCLC", "value": 32.6, "unit": "µM"}, {"measurement": "GI50", "setting": "MDA-MB-231 breast", "value": 27.1, "unit": "µM"}, {"measurement": "TGI", "setting": "MDA-MB-231 breast", "value": 65.6, "unit": "µM"}, {"measurement": "GI50", "setting": "NCI-H460 lung", "value": 18.6, "unit": "µM"}, {"measurement": "TGI", "setting": "NCI-H460 lung", "value": 44, "unit": "µM"}, {"measurement": "GI50", "setting": "SF-268 CNS", "value": 18.2, "unit": "µM"}, {"measurement": "TGI", "setting": "SF-268 CNS", "value": 40.2, "unit": "µM"}, {"measurement": "GI50", "setting": "SK-MEL-28 melanoma", "value": 28.9, "unit": "µM"}, {"measurement": "TGI", "setting": "SK-MEL-28 melanoma", "value": "> 100", "unit": "µM"}, {"measurement": "GI50", "setting": "SN12C renal", "value": 17, "unit": "µM"}, {"measurement": "TGI", "setting": "SN12C renal", "value": 33.7, "unit": "µM"}, {"measurement": "GI50", "setting": "U251 CNS", "value": 15, "unit": "µM"}, {"measurement": "TGI", "setting": "U251 CNS", "value": 32.8, "unit": "µM"}, {"measurement": "GI50", "setting": "UACC-62 melanoma", "value": 17.3, "unit": "µM"}, {"measurement": "TGI", "setting": "UACC-62 melanoma", "value": 35.3, "unit": "µM"}]}
{"smiles": "COC(=O)c1cc(-c2ccc(OC)cc2)[nH]c1N/N=C/c1c(Cl)cccc1Cl", "values": [{"measurement": "GI50", "setting": "BT-549 breast", "value": 0.177, "unit": "µM"}, {"measurement": "TGI", "setting": "BT-549 breast", "value": 2.02, "unit": "µM"}, {"measurement": "GI50", "setting": "HCC-2998 colon", "value": 0.118, "unit": "µM"}, {"measurement": "TGI", "setting": "HCC-2998 colon", "value": 0.536, "unit": "µM"}, {"measurement": "GI50", "setting": "HOP-92 NSCLC", "value": 0.206, "unit": "µM"}, {"measurement": "TGI", "setting": "HOP-92 NSCLC", "value": 2.5, "unit": "µM"}, {"measurement": "GI50", "setting": "MDA-MB-231 breast", "value": 0.462, "unit": "µM"}, {"measurement": "TGI", "setting": "MDA-MB-231 breast", "value": 3.24, "unit": "µM"}, {"measurement": "GI50", "setting": "NCI-H460 lung", "value": 0.201, "unit": "µM"}, {"measurement": "TGI", "setting": "NCI-H460 lung", "value": 0.992, "unit": "µM"}, {"measurement": "GI50", "setting": "SF-268 CNS", "value": 0.203, "unit": "µM"}, {"measurement": "TGI", "setting": "SF-268 CNS", "value": 10.4, "unit": "µM"}, {"measurement": "GI50", "setting": "SK-MEL-28 melanoma", "value": 0.387, "unit": "µM"}, {"measurement": "TGI", "setting": "SK-MEL-28 melanoma", "value": "> 100", "unit": "µM"}, {"measurement": "GI50", "setting": "SN12C renal", "value": 0.507, "unit": "µM"}, {"measurement": "TGI", "setting": "SN12C renal", "value": 18.7, "unit": "µM"}, {"measurement": "GI50", "setting": "U251 CNS", "value": 0.292, "unit": "µM"}, {"measurement": "TGI", "setting": "U251 CNS", "value": 1.82, "unit": "µM"}, {"measurement": "GI50", "setting": "UACC-62 melanoma", "value": 0.205, "unit": "µM"}, {"measurement": "TGI", "setting": "UACC-62 melanoma", "value": 16.8, "unit": "µM"}]}
{"smiles": "C[C@]12CC[C@@H](OC(=O)N(CCCl)N=O)C[C@@H]1CC[C@@H]1[C@@H]2CC[C@]2(C)C(=O)CC[C@@H]12", "values": [{"measurement": "GI50", "setting": "BT-549 breast", "value": 14.2, "unit": "µM"}, {"measurement": "TGI", "setting": "BT-549 breast", "value": 33.2, "unit": "µM"}, {"measurement": "GI50", "setting": "HCC-2998 colon", "value": 2.77, "unit": "µM"}, {"measurement": "TGI", "setting": "HCC-2998 colon", "value": 9.43, "unit": "µM"}, {"measurement": "GI50", "setting": "HOP-92 NSCLC", "value": 6.79, "unit": "µM"}, {"measurement": "TGI", "setting": "HOP-92 NSCLC", "value": 35.9, "unit": "µM"}, {"measurement": "GI50", "setting": "MDA-MB-231 breast", "value": 13.5, "unit": "µM"}, {"measurement": "TGI", "setting": "MDA-MB-231 breast", "value": 29.8, "unit": "µM"}, {"measurement": "GI50", "setting": "NCI-H460 lung", "value": 0.247, "unit": "µM"}, {"measurement": "TGI", "setting": "NCI-H460 lung", "value": 1.75, "unit": "µM"}, {"measurement": "GI50", "setting": "SF-268 CNS", "value": 0.632, "unit": "µM"}, {"measurement": "TGI", "setting": "SF-268 CNS", "value": 18.9, "unit": "µM"}, {"measurement": "GI50", "setting": "SK-MEL-28 melanoma", "value": 14.7, "unit": "µM"}, {"measurement": "TGI", "setting": "SK-MEL-28 melanoma", "value": 29.6, "unit": "µM"}, {"measurement": "GI50", "setting": "SN12C renal", "value": 8.01, "unit": "µM"}, {"measurement": "TGI", "setting": "SN12C renal", "value": 23.3, "unit": "µM"}, {"measurement": "GI50", "setting": "U251 CNS", "value": 0.851, "unit": "µM"}, {"measurement": "TGI", "setting": "U251 CNS", "value": 15.7, "unit": "µM"}, {"measurement": "GI50", "setting": "UACC-62 melanoma", "value": 1.46, "unit": "µM"}, {"measurement": "TGI", "setting": "UACC-62 melanoma", "value": 25.6, "unit": "µM"}]}
{"smiles": "Oc1c(Cl)cc(Cl)cc1Sc1cc(Cl)cc(Cl)c1O", "values": [{"measurement": "GI50", "setting": "BT-549 breast", "value": 2.81, "unit": "µM"}, {"measurement": "TGI", "setting": "BT-549 breast", "value": 8.09, "unit": "µM"}, {"measurement": "GI50", "setting": "HCC-2998 colon", "value": 3.7, "unit": "µM"}, {"measurement": "TGI", "setting": "HCC-2998 colon", "value": 14.7, "unit": "µM"}, {"measurement": "GI50", "setting": "HOP-92 NSCLC", "value": 1.65, "unit": "µM"}, {"measurement": "TGI", "setting": "HOP-92 NSCLC", "value": "4.47 µM and 4.65 µM"}, {"measurement": "GI50", "setting": "MDA-MB-231 breast", "value": "2.59 µM and 1.86 µM"}, {"measurement": "TGI", "setting": "MDA-MB-231 breast", "value": "6.07 µM and 4.34 µM"}, {"measurement": "GI50", "setting": "NCI-H460 lung", "value": "2.98 µM and 2.56 µM"}, {"measurement": "TGI", "setting": "NCI-H460 lung", "value": "9.91 µM and 8.1 µM"}, {"measurement": "GI50", "setting": "SF-268 CNS", "value": "4.4 µM and 3.44 µM"}, {"measurement": "TGI", "setting": "SF-268 CNS", "value": "17.3 µM and 14 µM"}, {"measurement": "GI50", "setting": "SK-MEL-28 melanoma", "value": "7.01 µM and 4 µM"}, {"measurement": "TGI", "setting": "SK-MEL-28 melanoma", "value": "21 µM and 14.5 µM"}, {"measurement": "GI50", "setting": "SN12C renal", "value": "3.13 µM and 3.14 µM"}, {"measurement": "TGI", "setting": "SN12C renal", "value": "13 µM and 11.4 µM"}, {"measurement": "GI50", "setting": "U251 CNS", "value": "3.01 µM and 2.74 µM"}, {"measurement": "TGI", "setting": "U251 CNS", "value": "11.2 µM and 10.5 µM"}, {"measurement": "GI50", "setting": "UACC-62 melanoma", "value": "3.57 µM and 2.02 µM"}, {"measurement": "TGI", "setting": "UACC-62 melanoma", "value": "14.1 µM and 5.44 µM"}]}
